# Entries after “also recorded” stand apart in the source; their conditions may differ.
# Key:
# SUDHL5 cells [1] = assay: Cell cycle analysis (EdU / 7-AAD) of SUDHL5; type: cell-based, human; conditions: SUDHL5, 10 nM, 24 hours
# Method: 2 million SUDHL5 cells were plated in 4 mL of media in 6-well plates and treated with 10 nM of drug. After 22 hours, cells were dosed with 10 μM 5-ethynyl-2’-deoxyuridine (EdU) and allowed to incubate for an additional 2 hours, at which point cells were harvested and collected by centrifuging at 300g for 4 minutes at 4°C. Cells were washed once with 1% BSA in PBS. 1.1 million cells in 1% BSA/PBS were then transferred to flow cytometry polypropylene tubes and centrifuged at 300g for 4 minutes at 4°C. Supernatant was removed, and cells were fixed for 15 minutes in the dark at room temperature with 100 μL of 4% PFA in PBS, in which gentle flicking was used to resuspend cells. Cells were then washed with 1 mL of 1% BSA/PBS and permeabilized with 100 μL of 0.1% Triton-X for 30 minutes at room temperature in the dark. Cells were washed with 3 mL 1% BSA/PBS, then incubated in the dark for 30 minutes with a cocktail of AlexaFluor-488-Azide (438 μL PBS, 10 μL 100 mM CuSO4, 2 μL 488-azide, and 50 μL of 1x EdU Reaction Buffer dissolved in water) (Invitrogen C10337). Cells were washed with 1 mL 1% BSA in PBS, then incubated with a reaction cocktail of 7-AAD/RNAseA for 30 minutes in the dark (500 μL 1% BSA/PBS, 2 μL 7-AAD (BD 559925), 5 μL RNAseA (Invitrogen 12091021)). […] Cells were gently agitated by shaking, then analyzed through flow cytometry on a BD Accuri. […]
# [2] = tested on: B and T cells isolated from primary tonsillar lymphocytes; assay: Viability of primary tonsillar lymphocytes, 72 h; type: cell-based, human; conditions: primary tonsillar lymphocytes of two donors, compared with SUDHL5
# p300^BD-BCL6^BTB = assay: TR-FRET ternary assay p300BD-BCL6BTB; type: binding, human
# Method: 10 μL reactions containing 10 nM 6x-His- p300^BD or 6x-His-CBP^BD, 200 nM BiotinylatedAvi-BCL6^BTB, 20 nM streptavidin-FITC (SA1001, Thermo), and 1:400 anti-6x-His-terbium (PerkinElmer 61HI2TLF) in buffer containing 20 mM HEPES pH 7.5, 150 mM NaCl, 0.1% BSA, 0.1% NP-40, and 1 mM TCEP were plated in low-volume 384 well plates. Drugs were digitally dispensed (Tecan D300e) into protein-containing wells, and the plate was allowed to incubate in the dark for 1 hour at room temperature. Emission at 490 nm (terbium) and 520 nm (FITC) was measured on a PHERAstar FS plate reader (BMG Labtech) upon excitation with 337 nm. The ratio of signal at 520 nm to 490 nm was calculated and normalized to DMSO-treated protein.
# SUDHL5 cells [3] = assay: TUNEL and total DNA content co-staining of SUDHL5; type: cell-based, human; conditions: SUDHL5, 10 nM
# Method: 1 million SUDHL5 cells were plated in 6 mL of media in 6-well plates and treated with compound for indicated timepoints and doses. 1.2 million total cells were counted, washed in PBS, fixed in 4% paraformaldehyde/PBS at a concentration of 10M/mL for 15 minutes at room temperature in the dark, washed in PBS, and stored in 70% ethanol at −20°C until ready for processing (at least 24 hours). DNA breaks in fixed cells were labeled with bromolated deoxyuridine (Br-dUTP or BrdU) by incubation with deoxynucleotidyl transferase (TdT) for 60 min at 37°C, washed, and stained with FITC-labeled anti-BrdU antibodies for 30 min at room temperature in the dark (BD 556405). Cells were resuspended in 1% BSA/PBS with 1:100 RNaseA (Invitrogen 12091021) and co-stained with 7-AAD for 30 min at room temperature in the dark (BD 559925). The suspension was gently agitated by shaking and analyzed by flow cytometry within 1 hour (BD Accuri).
# DAUDI = assay: Cell viability, 7 days compound treatment (Cell Titer-Glo), DAUDI; type: cell-based; conditions: Homo sapiens, 168 h, read-out: IC50 of antiproliferation
# Method: Fifteen thousand cells were seeded in 100 μl of media per well of a U-bottom 96-well plate and treated with digitally dispensed drugs (Tecan D300e) for the indicated times and doses. After 96 hours, plates were centrifuged for 750 rpm for 3 minutes, and old media was exchanged for 100 μl of fresh media. Drug treatment was then repeated at the indicated doses. 72 hours following media change, cells were transferred to 96 well flat-bottom opaque plates. Viability was measured by adding 25 μL Cell Titer-Glo reagent (Promega G7570) to each well and luminescence was measured (BMG Labtech Pherastar FS). The background luminescence was subtracted, and the signal was normalized to DMSO-treated cells. IC50 measurements on cell lines were calculated using at least three biological replicates by separate cell passages. Fit of dose–response curves to data and statistical analysis was performed using GraphPad PRISM using the four-parameter log(inhibitor) vs response function.
# [4] = tested on: BCL6-repressed GFP reporter; assay: BCL6 reporter assay (BCL6-repressed GFP) in K422 cells; type: cell-based, human; conditions: 24 h, highest GFP signal
# Method: KARPAS422 cells were lentivirally transduced with a construct containing the reporter. Description of the reporter construct has been published previously. After selection, cells were plated and treated with indicated amount of compound for 24 hours. Cells were washed in 2.5% FBS/PBS, stained with 1:250 v/v of 7-AAD (BD 559925) to distinguish live from dead cells, and harvested for flow cytometry on a BD Accuri. Given the polyclonal population after transduction, the area under the curve of the histogram representing FITC signal across all live cells was calculated as an integrative measure of total GFP signal. A GFP-positive gate two standard deviations from the mean was drawn from non-transduced cells and the area past a constant threshold was calculated and normalized to the signal from cells treated with DMSO.
structure (smiles),measurement,setting,value
CNC(=O)COc1cc2cc(Nc3nc(N4CCC(C(=O)N5CCN(CCC(=O)N6CCC(n7nc(N8CCCc9cc(-c%10cnn(C)c%10)c(C(F)F)cc98)c8c7CCN(C(=O)NC)C8)CC6)CC5)CC4)ncc3Cl)cc(OC)c2n(C)c1=O [TCIP3],cell cycle effect,SUDHL5 cells [1],enrichment in cells arrested in G0/G1
same,cytotoxicity,[2],substantially reduced cytotoxicity; also recorded: without exhibiting toxicity
same,"TR-FRET signal AUC, times higher than NEG1",p300^BD-BCL6^BTB,23 times
same,"TR-FRET signal AUC, times higher than NEG2",p300^BD-BCL6^BTB,18 times
same,predominant cellular effect after 24 hours,SUDHL5 cells [3],arrest cells in G1
same,IC50,DAUDI,6.9 nM
same,GFP signal relative to DMSO treatment,[4],10 times

# Reference: paper doi:10.1101/2025.03.14.643404, “A Bivalent Molecular Glue Linking Lysine Acetyltransferases to Oncogene-induced Cell Death” (bioRxiv, 2025)
